21 compounds from article PMC10208593 (Journal of molecular structure, 2023) can be followed below.

For assay [1], the system named is Huh7. The assay can be described thus: SRB cytotoxicity assay, Huh7. In kind it is cell-based. The settings on record: Homo sapiens. (Sulforhodamine B stains cellular protein and so reports cell mass.)
The next assay has as its system MCF-7. Description: SRB cytotoxicity assay, MCF-7. The conditions noted are these: Homo sapiens, MCF7, 72 h, read-out: IC50 (μM) ± S.D. MCF-7. It counts as cell-based.
A further assay concerns HCT116. Description: SRB cytotoxicity assay, HCT116. The conditions noted are these: Homo sapiens, HCT-116, 72 h, read-out: IC50 (μM) ± S.D. HCT116. It counts as cell-based.
In another assay the test system is HepG2. The assay can be described thus: SRB cytotoxicity assay, HepG2. The conditions noted are these: Homo sapiens, HepG2, read-out: IC50 (μM) ± S.D. HepG2. It counts as cell-based.
Assay [2] concerns Mahlavu. The assay can be described thus: SRB cytotoxicity assay, Mahlavu. It counts as cell-based. The settings on record: Homo sapiens, read-out: IC50 (μM) ± S.D. Mahlavu.
In a further assay the test system is SNU475. The assay can be described thus: SRB cytotoxicity assay, SNU475. In kind it is cell-based. The conditions noted are these: Homo sapiens, SNU-475, read-out: IC50 (μM) ± S.D. SNU475.
Assay [3] deals with tubulin obtained from bovine brains (Bos taurus, UniProt P81947+Q6B856). The assay can be described thus: Inhibition of [3H]colchicine binding to tubulin. The conditions noted are these: for Colchicine binding % inhibition ± SD, 50 μM: 50 μM compound, tubulin 1 μM, [3H]colchicine 5 μM; for inhibition at 50 µM: read-out: Colchicine binding % inhibition ± SD, 50 μM.
The test system of a further assay is six cancer cell lines. Description: SRB assay, six cancer cell lines taken together. In kind it is cell-based. The conditions noted are these: Homo sapiens, read-out: IC50 range against the six cancer cell lines examined.
For assay [4], the system named is Huh7. The assay can be described thus: Flow cytometry cell cycle analysis, Huh7. It counts as cell-based, human. The settings on record: propidium iodide; for cell cycle phase arrest, Huh7, higher concentration: 72 h at 10 μM; for cell cycle phase arrest, Huh7: 72 h at IC50 concentration. (Flow cytometry measures light scatter and fluorescence of single cells or particles in a stream.)

Assay [5] has as its system Mahlavu. Description: Flow cytometry cell cycle analysis, Mahlavu. It counts as cell-based, human. The settings on record: propidium iodide; for cell cycle phase arrest, Mahlavu, higher concentration: 72 h at 10 μM; for cell cycle phase arrest, Mahlavu: 72 h at IC50 concentration.
Assay [6] relates to Huh7, HepG2, Mahlavu and SNU475 cells. The assay can be described thus: Detection of apoptosis by Hoechst 33258 staining. The conditions noted are these: 48 h, IC100 concentrations, all four HCC lines. In kind it is cell-based, human.
Assay [7] relates to Mahlavu. Description: Real-time cell monitoring. In kind it is cell-based, human. The settings on record: RT-CES, increasing concentrations, 72 h, vs DMSO control.
[8] abbreviates: Huh-7, 72 h, read-out: IC50 (μM) ± S.D. Huh7.
[9] abbreviates: Huh-7, read-out: IC50 (μM) ± S.D. Huh7 (HCC cell lines).

Entries after “also recorded” stand apart in the source; their conditions may differ. Read-outs that look alike come from different tables or passages of the source.

By IC50 is commonly meant the concentration that inhibits the measured activity by half. As a reminder, the inhibition is how much of the control response was suppressed.

tubulin obtained from bovine brains, sequence (Q6B856 whole entry): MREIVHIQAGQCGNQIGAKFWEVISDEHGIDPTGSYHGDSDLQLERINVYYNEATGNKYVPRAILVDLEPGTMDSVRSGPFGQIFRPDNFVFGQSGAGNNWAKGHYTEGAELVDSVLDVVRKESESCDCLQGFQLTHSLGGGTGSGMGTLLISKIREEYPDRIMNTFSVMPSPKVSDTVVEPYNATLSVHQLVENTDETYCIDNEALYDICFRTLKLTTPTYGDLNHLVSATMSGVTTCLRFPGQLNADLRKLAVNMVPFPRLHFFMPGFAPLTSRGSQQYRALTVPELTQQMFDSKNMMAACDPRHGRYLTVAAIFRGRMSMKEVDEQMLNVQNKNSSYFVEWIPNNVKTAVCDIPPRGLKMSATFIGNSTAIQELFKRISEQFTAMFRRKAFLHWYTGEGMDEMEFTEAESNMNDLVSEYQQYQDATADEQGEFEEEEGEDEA
tubulin obtained from bovine brains, sequence (P81947 whole entry): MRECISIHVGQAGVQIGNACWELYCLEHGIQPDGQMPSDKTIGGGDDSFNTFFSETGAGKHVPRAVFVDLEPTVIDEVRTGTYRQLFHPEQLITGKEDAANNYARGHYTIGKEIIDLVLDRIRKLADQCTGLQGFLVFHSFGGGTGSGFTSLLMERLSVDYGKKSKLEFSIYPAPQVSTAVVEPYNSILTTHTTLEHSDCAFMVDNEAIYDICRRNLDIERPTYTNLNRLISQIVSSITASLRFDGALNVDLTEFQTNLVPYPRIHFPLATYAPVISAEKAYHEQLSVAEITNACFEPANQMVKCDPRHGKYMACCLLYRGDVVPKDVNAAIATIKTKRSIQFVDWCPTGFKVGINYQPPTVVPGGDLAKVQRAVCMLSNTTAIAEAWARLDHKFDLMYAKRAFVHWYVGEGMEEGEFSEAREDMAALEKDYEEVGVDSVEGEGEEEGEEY

Consider `O=C(NC1CCN(Cc2ccccc2)CC1)c1cc(-c2c[nH]c3ccccc23)n[nH]1` [Compound 27, N-(1-Benzylpiperidin-4-yl)-3-(1H-indol-3-yl)-1H-pyrazole-5-carboxamide], for which the concentration for half-maximal inhibition (IC50) turned out to be 6.8 ± 0.7 µM with Huh7 [1] (setting [8]), 8.6 ± 0.2 µM in the assay on MCF-7 and 8.9 ± 0.7 µM with HCT116.
Consider `COc1cc(CNC(=O)c2cc(-c3c[nH]c4ccccc34)n[nH]2)cc(OC)c1OC` [Compound 13, 3-(1H-Indol-3-yl)-N-(3,4,5-trimethoxybenzyl)-1H-pyrazole-5-carboxamide], for which the IC50 in the assay on Huh7 [1] (setting [8]) was determined as 17.2 ± 2.1 µM; in the assay on MCF-7 it was 17.9 ± 1 µM; in the assay on HCT116 it was 31 ± 2.4 µM.
In the same order, the values of `O=C(NCc1ccncc1)c1cc(-c2c[nH]c3ccccc23)n[nH]1` [Compound 24, 3-(1H-Indol-3-yl)-N-(pyridin-4-ylmethyl)-1H-pyrazole-5-carboxamide] are 30.4 ± 1.4 µM, 31.2 ± 2.6 µM and 33.2 ± 1 µM.
For the compound `COc1ccc(NC(=O)c2cc(-c3c[nH]c4ccccc34)n[nH]2)cc1` [Compound 15, 3-(1H-Indol-3-yl)-N-(4-methoxyphenyl)-1H-pyrazole-5-carboxamide], the values for the IC50 with Huh7 [1] (setting [8]), with MCF-7 and in the assay on HCT116 were 8.6 ± 2.1 µM, 5.5 ± 0.5 µM and 11.9 ± 1 µM, respectively.
As to `O=C(NCc1cccnc1)c1cc(-c2c[nH]c3ccccc23)n[nH]1` [Compound 25, 3-(1H-Indol-3-yl)-N-(pyridin-3-ylmethyl)-1H-pyrazole-5-carboxamide], the IC50 in the assay on Huh7 [1] (setting [8]) turned out to be 29.1 ± 1 µM; with MCF-7 it was 36.5 ± 4 µM; with HCT116 it was 26.8 ± 2.1 µM.
Regarding `O=C(Nc1ccc(Br)cc1)c1cc(-c2c[nH]c3ccccc23)n[nH]1` [Compound 23, N-(4-Bromophenyl)-3-(1H-indol-3-yl)-1H-pyrazole-5-carboxamide], the IC50 in the assay with Huh7 [1] (setting [8]) was above 50 µM; in the assay on MCF-7, 39.3 ± 1 µM; in the assay on HCT116, above 50 µM.
In the case of `O=C(c1cc(-c2c[nH]c3ccccc23)n[nH]1)N1CCCCC1` [Compound 19, (3-(1H-Indol-3-yl)-1H-pyrazol-5-yl)(piperidin-1-yl)methanone], the IC50 was 19.1 ± 1.8 µM in the assay with Huh7 [1] (setting [8]), 21.7 ± 2 µM in the assay on MCF-7 and 23 ± 3.5 µM with HCT116.
Consider `COc1ccc(OC)c(NC(=O)c2cc(-c3c[nH]c4ccccc34)n[nH]2)c1` [Compound 18, N-(2,5-Dimethoxyphenyl)-3-(1H-indol-3-yl)-1H-pyrazole-5-carboxamide], for which the IC50 in the assay on Huh7 [1] (setting [8]) worked out at 0.6 ± 0.1 µM; in the assay on Huh7 [1] (setting [9]) it was 0.6 ± 0.2 µM; with MCF-7, 3.6 ± 0.4 µM; with HCT116, 1.4 ± 0.5 µM; in the assay with HepG2 it was 1.3 ± 0.09 µM; with Mahlavu [2], 2.9 ± 0.8 µM. Besides, the IC50 with SNU475 was 2.9 ± 1.13 µM; in the assay with six cancer cell lines, 0.6 to 3.6 µM. In addition, the “Colchicine binding % inhibition ± SD, 50 μM” value in [3] is “Inhibition was observed”. The inhibition at 50 µM in [3] turned out to be 23 ± 3%. Also, in the assay with Huh7 [4], the “cell cycle phase arrest, Huh7, higher concentration” value is “cell cycle arrest in the G2/M phase; also recorded: cell cycle arrest at the G2/M phase”. Also, in the assay on Huh7 [4], the “cell cycle phase arrest, Huh7” value is given as “did not cause a significant change”. Also, in the assay on Mahlavu [5], the “cell cycle phase arrest, Mahlavu, higher concentration” value is “cell cycle arrest in the G2/M phase; also recorded: cell cycle arrest at the G2/M phase”. In addition, the “cell cycle phase arrest, Mahlavu” value in the assay on Mahlavu [5] is “arrest in the G2/M phase”. The “apoptotic nuclear morphology (Hoechst staining)” value (shortened to “apoptotic nuclear morphology”) in assay [6] is recorded as “visible nuclear blebs or deformed nuclei; also recorded: induced apoptotic cell death”.
`COc1cc(NC(=O)c2cc(-c3c[nH]c4ccccc34)n[nH]2)cc(OC)c1OC` [Compound 10, 3-(1H-Indol-3-yl)-N-(3,4,5-trimethoxyphenyl)-1H-pyrazole-5-carboxamide]: the IC50 with Huh7 [1] (setting [8]) was found to be 1 ± 0.2 µM; in the assay on Huh7 [1] (setting [9]) it was 1 ± 0.2 µM; with MCF-7, 2.1 ± 0.1 µM; with HCT116 it was 2.5 ± 0.3 µM; in the assay on HepG2, 2.9 ± 0.1 µM; in the assay on Mahlavu [2], 2.7 ± 0.4 µM. For the same compound, the IC50 with SNU475 came out at 4.1 ± 2.1 µM. In addition, the “Colchicine binding % inhibition ± SD, 50 μM” value in assay [3] is listed as “Inhibition was observed”. Also, the inhibition at 50 µM in assay [3] was 26 ± 7%. In addition, the “real-time cell growth (cell index) inhibition, Mahlavu” value in the assay on Mahlavu [7] is “noticeable inhibition in cell growth in 6 μM concentration”. In addition, the “cell cycle phase arrest, Huh7” value in the assay with Huh7 [4] is listed as “arrest in the G0/G1 phase”. For the same compound, the “apoptotic nuclear morphology” value in assay [6] is “visible nuclear blebs or deformed nuclei”.
On to `CNC(=O)c1cc(Oc2ccc(NC(=O)Nc3ccc(Cl)c(C(F)(F)F)c3)cc2)ccn1` [Sorafenib, sorafenib, reference compound], for which the IC50 in the assay on Huh7 [1] (setting [8]) stood at 6.5 ± 0.7 µM; in the assay with Huh7 [1] (setting [9]), 6.5 ± 0.7 µM; in the assay on MCF-7, 13.8 ± 1.2 µM; in the assay on HCT116, 12 ± 0.6 µM; in the assay on HepG2 it was 4.4 ± 0.8 µM; in the assay with Mahlavu [2] it was 8.3 ± 1 µM. In the assay with SNU475, the IC50 was 9.6 ± 0.5 µM.
For `O=C(c1cc(-c2c[nH]c3ccccc23)n[nH]1)N1CCN(Cc2ccc(C(F)(F)F)cc2)CC1` [Compound 29, (3-(1H-Indol-3-yl)-1H-pyrazol-5-yl)(4-(4-(trifluoromethyl)benzyl)piperazin-1-yl)methanone], the IC50 with Huh7 [1] (setting [8]) was determined as 1.7 ± 1.8 µM; with MCF-7, 3 ± 0.8 µM; in the assay with HCT116 it was 4.1 ± 2 µM.
In the same order, the values of `O=C(c1cc(-c2c[nH]c3ccccc23)n[nH]1)N1CCN(c2ccc(C(F)(F)F)cc2)CC1` [Compound 28, (3-(1H-Indol-3-yl)-1H-pyrazol-5-yl)(4-(4-(trifluoromethyl)phenyl)piperazin-1yl)methanone] are 16.2 ± 3.2 µM, 16.1 ± 1.7 µM and 27.6 ± 2.4 µM.
Take `O=C(Nc1ccc(Cl)cc1)c1cc(-c2c[nH]c3ccccc23)n[nH]1` [Compound 22, N-(4-Chlorophenyl)-3-(1H-indol-3-yl)-1H-pyrazole-5-carboxamide]: the half-maximal inhibitory concentration (IC50) in the assay on Huh7 [1] (setting [8]) was above 50 µM; with MCF-7, 29.8 ± 3.1 µM; with HCT116 it was above 50 µM.
With `COc1ccc(NC(=O)c2cc(-c3c[nH]c4ccccc34)n[nH]2)cc1OC` [Compound 17, N-(3,4-Dimethoxyphenyl)-3-(1H-indol-3-yl)-1H-pyrazole-5-carboxamide], the IC50 in the assay with Huh7 [1] (setting [8]) is 2.8 ± 1.2 µM; with MCF-7 it was 1.7 ± 0.4 µM; in the assay on HCT116 it was 10.1 ± 0.7 µM.
Regarding `CC(C)(C)c1ccc(NC(=O)c2cc(-c3c[nH]c4ccccc34)n[nH]2)cc1` [Compound 11, N-(4-(tert-Butyl)phenyl)-3-(1H-indol-3-yl)-1H-pyrazole-5-carboxamide], the IC50 in the assay with Huh7 [1] (setting [8]) turned out to be 0.6 ± 0.4 µM; with Huh7 [1] (setting [9]), 0.6 ± 0.4 µM; in the assay with MCF-7, 1 ± 0.1 µM; in the assay with HCT116 it was 1.2 ± 0.5 µM; with HepG2, 2.7 ± 0.9 µM; in the assay on Mahlavu [2] it was 3.4 ± 0.8 µM. Further, in the assay on SNU475, the IC50 is 4.3 ± 0.9 µM. Moreover, the inhibition at 50 µM in [3] was 9.4 ± 2%. Also, in the assay with Mahlavu [7], the “real-time cell growth (cell index) inhibition, Mahlavu” value is “dose-dependent growth inhibition”. Further, in the assay on Huh7 [4], the “cell cycle phase arrest, Huh7, higher concentration” value is on record as “arrest in the S phase”. Moreover, the “cell cycle phase arrest, Huh7” value with Huh7 [4] is “did not cause a significant change”. In addition, the “cell cycle phase arrest, Mahlavu, higher concentration” value in the assay on Mahlavu [5] is “arrest in the S phase”. Also, the “cell cycle phase arrest, Mahlavu” value with Mahlavu [5] was “arrest in the S phase”. Further, in assay [6], the “apoptotic nuclear morphology” value is “visible nuclear blebs or deformed nuclei”.
Take `O=C(Nc1ccccc1)c1cc(-c2c[nH]c3ccccc23)n[nH]1` [Compound 14, 3-(1H-Indol-3-yl)-N-phenyl-1H-pyrazole-5-carboxamide]: the values for the IC50 in the assay on Huh7 [1] (setting [8]), in the assay on MCF-7 and with HCT116 were 16.8 ± 3.8 µM, 22.2 ± 1.8 µM and above 50 µM, respectively.
Regarding `COc1cc(NC(=O)c2cc(-c3c[nH]c4ccccc34)n[nH]2)cc(OC)c1` [Compound 16, N-(3,5-Dimethoxyphenyl)-3-(1H-indol-3-yl)-1H-pyrazole-5-carboxamide], the IC50 in the assay on Huh7 [1] (setting [8]) was found to be 4.5 ± 0.1 µM; in the assay with MCF-7, 2.6 ± 0.5 µM; in the assay with HCT116 it was 6.2 ± 1 µM.
Taken in the same sequence, the figures for `CSc1ccc(NC(=O)c2cc(-c3c[nH]c4ccccc34)n[nH]2)cc1` [Compound 12, 3-(1H-Indol-3-yl)-N-(4-(methylthio)phenyl)-1H-pyrazole-5-carboxamide] were 6.3 ± 1.6 µM, 2 ± 0.2 µM and 9 ± 1.9 µM.
In the same order, the values of `O=C(c1cc(-c2c[nH]c3ccccc23)n[nH]1)N1CCOCC1` [Compound 20, (3-(1H-Indol-3-yl)-1H-pyrazol-5-yl)(morpholino)methanone] are above 50 µM, above 50 µM and above 50 µM.
As for `CCCCNC(=O)c1cc(-c2c[nH]c3ccccc23)n[nH]1` [Compound 21, N-Butyl-3-(1H-indol-3-yl)-1H-pyrazole-5-carboxamide], the results for the IC50 in the assay with Huh7 [1] (setting [8]), in the assay on MCF-7 and with HCT116 were above 50 µM, 26.7 ± 0.5 µM and 23.1 ± 5.1 µM, respectively.
`O=C(NCc1ccccn1)c1cc(-c2c[nH]c3ccccc23)n[nH]1` [Compound 26, 3-(1H-Indol-3-yl)-N-(pyridin-2-ylmethyl)-1H-pyrazole-5-carboxamide]: the values for the IC50 with Huh7 [1] (setting [8]), in the assay with MCF-7 and in the assay on HCT116 were 35.4 ± 1.8 µM, above 50 µM and 34 ± 1.1 µM, respectively.
